Measured values published in PubChem BioAssay (NCI).
Values joined by “and” are separate entries in the source; they are usually repeats but may differ in a detail not shown here. Equal values may be shown once.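 Cultured in 96-well plates, cells were exposed to test compound for 48 hours across five concentrations. Abbreviation: GI50, concentration required for 50% inhibition of growth. TGI marks complete inhibition of growth.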

Columns and labels:
Assay in all cases: growth of human tumour cells (NCI), 48 h
NCI-H226 lung = system: NCI-H226 lung
MCF7 breast = system: MCF7 breast
HCC-2998 colon = system: HCC-2998 colon
786-0 renal = system: 786-0 renal
NCI/ADR-RES ovarian = system: NCI/ADR-RES ovarian
MOLT-4 leukemia = system: MOLT-4 leukemia
A549 NSCLC = system: A549 NSCLC
RPMI-8226 leukemia = system: RPMI-8226 leukemia
MDA-MB-435 = system: MDA-MB-435
SR leukemia = system: SR leukemia

SMILES | GI50 (NCI-H226 lung) | TGI (NCI-H226 lung) | GI50 (MCF7 breast) | TGI (MCF7 breast) | GI50 (HCC-2998 colon) | TGI (HCC-2998 colon) | GI50 (786-0 renal) | TGI (786-0 renal) | GI50 (NCI/ADR-RES ovarian) | TGI (NCI/ADR-RES ovarian) | GI50 (MOLT-4 leukemia) | TGI (MOLT-4 leukemia) | GI50 (A549 NSCLC) | TGI (A549 NSCLC) | GI50 (RPMI-8226 leukemia) | TGI (RPMI-8226 leukemia) | GI50 (MDA-MB-435) | TGI (MDA-MB-435) | GI50 (SR leukemia) | TGI (SR leukemia)
Cc1nnc(N/N=C/c2ccc([N+](=O)[O-])o2)[nH]c1=O | 1.46 µM | 25.4 µM | 1.24 µM | > 100 µM | 1.14 µM | > 100 µM | 0.649 µM | 15.3 µM | 1.75 µM | > 100 µM | 0.833 µM | > 100 µM | 2.57 µM | > 49.5 µM | 2.95 µM | > 32 µM | 0.908 µM | > 100 µM | 1.1 µM | > 100 µM
CC1=CC(C)=N/C(=N/S(=O)(=O)c2cc(C)c(Cl)cc2SCc2ccccc2)NN1 | > 100 µM | > 100 µM | > 100 µM | > 100 µM | > 100 µM | > 100 µM | > 100 µM | > 100 µM | > 100 µM | > 100 µM | > 100 µM | > 100 µM | > 100 µM | > 100 µM | > 100 µM | > 100 µM | > 100 µM | > 100 µM | > 100 µM | > 100 µM
Nc1nc(N)c2c(ccc3c2ccn3Cc2cccc([N+](=O)[O-])c2)n1 | 0.272 µM | 2.42 µM | 0.0565 µM and 0.0293 µM | 2.72 µM and 1.45 µM | 0.049 µM | 1.56 µM | 0.0411 µM | 1.5 µM | 0.0775 µM and 0.0835 µM | 18.6 µM | 0.0704 µM and 0.0621 µM | 2.49 µM | 0.00496 µM | 1.57 µM | 0.0585 µM and 0.0185 µM |  | 0.0217 µM | 2.4 µM and 2.59 µM | 0.00779 µM | 
Cc1c(C(=O)Nc2ccc(N3C[C@@H](C)O[C@@H](C)C3)nc2)cccc1-c1ccc(OC(F)(F)F)cc1 | 8.11 µM and 13.8 µM | 31.9 µM and 40.8 µM | 8.25 µM and 15.4 µM | 31 µM and 49 µM | 12.4 µM and 15.5 µM | 36.1 µM and 42.3 µM | 3.61 µM and 5.77 µM | 21 µM and 30 µM | 5.69 µM and 13.5 µM | 26.6 µM and 42.1 µM | 7.59 µM and 8.47 µM | > 100 µM | 4.91 µM and 6.91 µM | 22.1 µM and 32.1 µM | 5.7 µM and 12 µM | > 100 µM | 7.29 µM and 5.89 µM | 49.2 µM and 38 µM | 28.2 µM and > 100 µM | > 100 µM
CCC[CH2][Sn]1([CH2]CCC)[O]C(=O)c2cccc([N+](=O)[O-])c2C(=O)[O]1 | 0.331 µM | 1.34 µM | 0.244 µM | 1.13 µM | 1.11 µM | 2.45 µM | 0.724 µM | 1.99 µM | 1.53 µM | 3.21 µM | 0.409 µM | 2.98 µM | 1.77 µM | 3.59 µM | 0.186 µM | 0.596 µM | 0.594 µM | 1.91 µM | 0.28 µM | 1.97 µM
COc1cc2c(cc1OC)C(Cl)C(c1ccc(Br)cc1)=C2Cl (centres undefined) |  | > 55.1 µM |  | 21.2 µM |  | 27.4 µM |  | 16.7 µM |  | 30.9 µM |  | 49.2 µM |  | 33 µM |  | 15.2 µM |  | 17.4 µM |  | > 100 µM
COc1c(C(N)=O)cc(-c2ccc(Cl)cc2)cc1-c1ccc(S(N)(=O)=O)cc1 | 9.52 µM | > 25 µM | 11.9 µM | > 25 µM | 11.4 µM | > 25 µM | 12.5 µM | > 25 µM | > 17.5 µM | > 25 µM | 8.96 µM | > 20.7 µM | 8.33 µM | > 25 µM | 9.13 µM | > 25 µM | 11.4 µM | > 25 µM | 6 µM | 15.7 µM
Cc1cc(OCc2ccc(C(F)(F)F)cc2)c2c(c1)C(=O)C=C(NCCN1CCCC1)C2=O | 14.6 µM | 35.2 µM | 1.67 µM | 3.56 µM | 1.87 µM | 3.46 µM | 1.6 µM | 2.99 µM | 6.04 µM | 20.5 µM | 3.03 µM | 10.1 µM | 2.85 µM | 9.68 µM | 1.87 µM | 4.36 µM | 1.62 µM | 3.02 µM | 2.6 µM | 6.97 µM
O=C(Nc1cccc([N+](=O)[O-])c1)c1cccc(C(=O)Nc2cccc([N+](=O)[O-])c2)c1 | > 100 µM | > 100 µM | > 100 µM | > 100 µM | > 100 µM | > 100 µM | 25.6 µM | > 100 µM | > 100 µM | > 100 µM | > 100 µM | > 100 µM | > 100 µM | > 100 µM | > 100 µM | > 100 µM | > 100 µM | > 100 µM | > 100 µM | > 100 µM
CC1Cc2c(Cl)ncnc2N(C)c2ccccc21 (centres undefined) | 2.05 µM | 21.7 µM | 3.17 µM | 14.5 µM | 3.01 µM | 10.6 µM | 3.23 µM | 11.5 µM | 2.69 µM | 12.4 µM | 3.46 µM | > 100 µM | 4.85 µM | > 100 µM | 3.54 µM | 16.4 µM | 3.24 µM | 16.7 µM | 3.33 µM | 32.6 µM
Nc1nc(-c2ccc3c(c2)/C(=C\c2cc(Br)c(O)c(Br)c2)C(=O)N3)cs1 | > 25 µM | > 25 µM | 12.8 µM | > 25 µM | 17.8 µM | > 25 µM | 14.1 µM | > 25 µM | > 23.4 µM | > 25 µM | 16.2 µM | > 25 µM | > 25 µM | > 25 µM | 14.9 µM | > 25 µM | 4.68 µM | 12 µM | 11.3 µM | > 25 µM
O=C1/C=C/[C@@H](O)[C@@H]2C[C@@H](O)C[C@H]2/C=C/CCC[C@H](CCO)O1 | 0.0684 µM | 0.287 µM | 0.188 µM | 0.558 µM | 0.227 µM |  | 0.0362 µM | 0.142 µM | 0.176 µM |  | 0.358 µM |  | 0.401 µM | > 100 µM | 0.33 µM | 6.34 µM | 0.254 µM | > 100 µM | 0.297 µM | 
CN1CCN(Cc2ccc(NC(=O)c3cncc(C#Cc4ccc(N)nc4)c3)cc2C(F)(F)F)CC1 | 0.358 µM | 2.75 µM | 1.23 µM | 7.22 µM | 1.96 µM | 6.96 µM | 1.76 µM | 6.83 µM | 1.9 µM | 10.3 µM | 1.03 µM | 6.82 µM | 1.38 µM | 7.24 µM | 1.05 µM | 3.82 µM | 1.09 µM | 5.68 µM | 0.679 µM | 3.51 µM
